pEC50, pIC50: −log10 of the molar value. Where two headings read alike, the source gives them in different places.
What was measured:
[1] = tested on: Staphylococcus aureus strain Seattle 1945 (ATCC #25923); experiment: bacterial proliferation assay, S. aureus; type: cell-based
Description: (§1) All compounds were evaluated for inhibiting the proliferation of E. coli and each of the ESKAPE bacteria. Results presented represent the averages of EC50 values obtained from at least four replicates. Evaluating compounds for inhibition of bacterial cell proliferation.
(§2) Growth Media: E. coli were grown with LB medium and all ESKAPE bacteria were grown in Brain Heart Infusion (BHI) medium (Becton, Dickinson and Company), with all liquid cultures supplemented with 25 mg/L Ca^2+ and 12.5 mg/L Mg^2+ to mimic physiological free concentrations of these cations. A 10 mg/mL Ca^2+ stock solution was prepared by dissolving 1.84 g of CaCl2.2H2O in 50 mL of deionized water, and a 10 mg/mL Mg^2+ stock solution was prepared by dissolving 4.18 g of MgCl2.6H2O in 50 mL deionized water—filter sterilized using 0.2 μm cellulose-acetate filters. 2.5 mL of the sterile 10 mg/mL Ca^2+ stock and 1.25 mL of the sterile 10 mg/mL Mg^2+ stock solutions were added per 1 L of autoclaved LB or BHI media to obtain 25 mg/L Ca^2+ and 12.5 mg/L Mg^2+ ions, respectively.
(§3) General Assay Protocol: Stock bacterial cultures were streaked onto LB or BHI agar plates and grown overnight at 37° C. Fresh aliquots of cation supplemented media were inoculated with single bacterial colonies and the cultures were grown overnight at 37° C. with shaking (240 rpm). The following morning, cultures were diluted 10-fold into fresh media and grown at 37° C. until bacteria had reached mid-log phase growth (OD600˜0.4-0.6). The cultures were then diluted into fresh media to achieve final OD600 readings of 0.017. Aliquots of these diluted cultures (30 μL) were added to clear, flat-bottom 384-well polystyrene plates that were previously stamped with 0.5 μL of test compounds in 20 μL of media (yielding initial OD600=0.01 bacterial cultures). All compounds were tested in dose-response with concentration ranges during the proliferation assays from 100 μM to 46 nM (3-fold dilution series). A second set of baseline control plates were prepared analogously, but without any bacteria added, to correct for possible compound absorbance and/or precipitation. […] Plates were then read at 600 nm using a Molecular Devices SpectraMax Plus384 microplate reader. […] Results presented represent the averages of EC50 values obtained from at least four replicates.
(§4) Evaluating analogs for inhibiting the growth of E. coli and the ESKAPE bacteria. Analogs were initially tested for antibacterial efficacy against representative strains of antibiotic-sensitive E. coli and the ESKAPE bacteria. To determine compound efficacy, bacterial proliferation assays were carried out in liquid media culture supplemented with physiological concentrations of free calcium and magnesium cations. For these assays, bacterial cultures (OD600=0.01) were exposed to test compounds in 8-point, 3-fold dilution series (100 μM to 46 nM concentration range), in 384-well plates. After addition of compounds to cultures, the plates were sealed with Breathe-Easy gas permeable membranes and allowed to grow to mid-log phase (OD600˜0.4-0.6), whereupon final OD600 readings were taken to assess for bacterial growth and inhibition.

[2] = tested on: Klebsiella pneumoniae strain NCTC 9633 (ATCC #13883); experiment: bacterial proliferation assay, K. pneumoniae; type: cell-based; conditions: for pEC50: Klebsiella pneumoniae, read-out: Bacterial Proliferation EC50 K. pneumoniae
Description: as §1, §2, §3, §4

[3] = tested on: Enterobacter cloacae strain CDC 442-68 (ATCC #13047); experiment: bacterial proliferation assay, E. cloacae; type: cell-based; conditions: ATCC13047, read-out: Bacterial Proliferation EC50 E. cloacae
Description: as §1, §2, §3, §4

[4] = target: T1, E. coli GroEL/ES (Escherichia coli, UniProt P0A6F5); experiment: GroEL/ES-mediated dMDH refolding assay; type: biochemical
T1 construct: made in house; host or cells: GroEL in NEB 5-alpha E. coli; GroES in E. coli BL21 (DE3)
T1 sequence (P0A6F5 2-548): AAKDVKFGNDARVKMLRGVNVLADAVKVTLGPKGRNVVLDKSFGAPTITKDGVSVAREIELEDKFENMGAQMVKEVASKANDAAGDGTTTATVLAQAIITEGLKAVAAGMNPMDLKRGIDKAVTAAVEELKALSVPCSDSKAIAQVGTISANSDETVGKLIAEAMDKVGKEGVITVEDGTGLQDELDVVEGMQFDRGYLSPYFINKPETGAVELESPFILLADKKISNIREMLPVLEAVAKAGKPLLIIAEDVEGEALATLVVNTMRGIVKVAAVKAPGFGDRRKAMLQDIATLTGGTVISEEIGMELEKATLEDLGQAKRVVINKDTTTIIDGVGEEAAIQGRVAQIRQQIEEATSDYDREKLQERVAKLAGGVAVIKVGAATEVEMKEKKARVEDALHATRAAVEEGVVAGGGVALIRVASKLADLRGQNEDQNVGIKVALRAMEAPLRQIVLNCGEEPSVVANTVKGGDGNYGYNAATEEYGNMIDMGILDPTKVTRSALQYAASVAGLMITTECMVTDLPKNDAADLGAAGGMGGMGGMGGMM
Description: Evaluating compounds for inhibition in the GroEL/ES-mediated dMDH refolding assay. All compounds were evaluated for inhibiting E. coli GroEL/ES-mediated refolding of the denatured MDH reporter enzyme. Reagent preparation: For these assays, four primary reagent stocks were prepared: 1) GroEL/ES-dMDH binary complex stock; 2) ATP initiation stock; 3) EDTA quench stock; 4) MDH enzymatic assay stock. Denatured MDH (dMDH) was prepared by 2-fold dilution of MDH (5 mg/ml, soluble pig heart MDH from Roche, product #10127248001) with denaturant buffer (7 M guanidine-HCl, 200 mM Tris, pH 7.4, and 50 mM DTT). MDH was completely denatured by incubating at room temperature for >45 min. The binary complex solutions were prepared by slowly adding the dMDH stock to a stirring stock with GroEL and GroES in folding buffer (50 mM Tris-HCl, pH 7.4, 50 mM KCl, 10 mM MgC2, and 1 mM DTT). […] For the ATP initiation stock, ATP solid was diluted into folding buffer to a final concentration of 2.5 mM. Quench solution contained 600 mM EDTA (pH 8.0). The MDH enzymatic assay stock consisted of 20 mM sodium mesoxalate and 1.6 mM NADH in reaction buffer (50 mM Tris-HCl, pH 7.4, 50 mM KCl, and 1 mM DTT).
Assay Protocol: First, 30 μL aliquots of the GroEL/ES-dMDH binary complex stocks were dispensed into clear, 384-well polystyrene plates. […] The chaperonin-mediated refolding cycles were initiated by addition of 20 μL of ATP stock (reagent concentrations during refolding cycle: 50 nM GroEL, 60 nM GroES, 12 nM dMDH, 1 mM ATP, and compounds of 100 μM to 46 nM, 3-fold dilution series) and the refolding reactions were incubated at 37° C. […] Next, the assay was quenched by addition of 10 μL of the EDTA stock to give a final concentration of 100 mM in the wells. […] A340 nm measurements were recorded at 0.5 minutes (start point) and at successive time points until the amount of NADH consumed reached ˜90% (end point, generally between 20-35 minutes).
Evaluating analogs for inhibiting GroEL/ES-mediated substrate refolding functions. […] We first evaluated all test compounds in our standard GroEL/ES-mediated refolding assays that employ either malate dehydrogenase (MDH) or rhodanese (Rho) as the denatured substrate reporter enzymes. When denatured, these enzymes are efficiently folded by GroEL/ES in the absence of inhibitors, and thus act as reporters to determine the degree of inhibition against the bacterial chaperonin system. Inhibition was examined in the presence of these two orthogonal substrates in order to support that GroEL/ES inhibitors were on-target. To further support on-target effects against GroEL/ES, we counter-screened for inhibition of the native MDH and Rho enzymatic reporter reactions, where test compounds were added after the denatured MDH and Rho substrate enzymes were completely refolded by GroEL/ES.

[5] = tested on: Acinetobacter baumannii strain 2208 (ATCC 19606); experiment: bacterial proliferation assay, A. baumannii; type: cell-based; conditions: ATCC19606, read-out: Bacterial Proliferation EC50 A. baumannii
Description: as §1, §2, §3, §4

[6] = Staphylococcus aureus, ATCC25923; read-out: Bacterial Proliferation EC50 S. aureus
[7] = without NfsB nitroreductase, read-out: GroEL/ES-dMDH Refolding IC50

SMILES	pEC50 [1, 6]	pEC50 [2]	pEC50 [3]	pIC50 [4]	pEC50 [5]	inhibition of K. pneumoniae in words [2]	pIC50 [4, 7]	pEC50 ([1]; Staphylococcus aureus, ATCC25923, read-out: Bacterial Proliferation EC50 S. aureus)	GroEL/ES inhibition in words ([4]; standard dMDH and dRho refolding assays, no nitroreductase)
O=C(N/N=C/c1ccc(O)c2ncccc12)c1ccccc1 [Compound 5, N′-((8-hydroxyquinolin-5-yl)methylene)benzohydrazide]	4.16	4.09	4.10	< 4.00	4.25	–	–	–	–
O=C(N/N=C/c1ccc([N+](=O)[O-])o1)c1ccc(O)cc1 [Nifuroxazide, reference compound]	4.80	4.43	4.27	< 4.00	< 4.00	–	–	–	–
O=C(N/N=C/c1ccc([N+](=O)[O-])o1)c1ccc(Cl)s1 [Compound 17, 5-chloro-N′-((5-nitrofuran-2-yl)methylene)thiophene-2-carbohydrazide]	5.52	4.72	4.31	–	4.14	moderate inhibitors	4.06	–	–
O=C(N/N=C/c1ccc(O)c2ncccc12)c1ccc(NS(=O)(=O)c2ccc(Br)cc2)cc1 [Compound 14, 4-bromo-N-(4-(2-((8-hydroxyquinolin-5-yl)methylene)hydrazine-1-carbonyl)phenyl)benzenesulfonamide]	–	< 4.00	< 4.00	4.85	4.08	–	–	< 4.00	–
O=C(N/N=C/c1ccc(O)c2ncccc12)c1cccs1 [Compound 3, N′-((8-hydroxyquinolin-5-yl)methylene)thiophene-2-carbohydrazide]	4.20	4.00	4.04	4.19	4.13	–	–	–	–
CN(C)c1ccc(C(=O)N/N=C/c2ccc([N+](=O)[O-])o2)cc1 [Compound 21, 4-(dimethylamino)-N′-((5-nitrofuran-2-yl)methylene)benzohydrazide]	4.47	< 4.00	< 4.00	–	< 4.00	–	4.59	–	generally the most potent GroEL/ES inhibitors
COc1ccc(C(=O)N/N=C/c2ccc(O)c3ccccc23)cc1 [Compound 29, N′-((4-hydroxynaphthalen-1-yl)methylene)-4-methoxybenzohydrazide]	< 4.00	< 4.00	< 4.00	< 4.00	< 4.00	–	–	–	–
O=C(N/N=C/c1ccc([N+](=O)[O-])o1)c1cccc(Oc2ccccc2)c1 [Compound 24, N′-((5-nitrofuran-2-yl)methylene)-3-phenoxybenzohydrazide]	5.46	< 4.00	< 4.00	4.15	< 4.00	–	–	–	–

Source: patent US20220009914A1, “Analogs of Nitrofuran Antibiotics to Combat Resistance” (The Trustees of Indiana University, priority 2020, published 2022)
